Source: US11235066B2, “Micelles and methods” (THE REGENTS OF THE UNIVERSITY OF MICHIGAN, priority 2015, dated 2022)

Key:
[1] = Body weight and physical signs during therapy; assay type: in vivo, CPC; Apc mice; details: vs no treatment (NSS) and plain rapamycin micelles
Protocol: The number of mice (number of adenomas) at the end of the study were n=5 (20), 6 (24), 5 (22), and 7 (21), respectively. Two mice (one in NSS group and one in unlabeled (plain) rapamycin micelle group) died from unexplained cause. […] Mice underwent endoscopy every ˜4 days to monitor adenoma regression and were weighed every 2 days for 5 weeks. A total of n=230 colonoscopy examinations was performed.
A linear mixed effects regression models was used to assess efficacy and toxicity. An interaction between treatment groups and time (days) was estimated in the model to compare adenoma regression rates among the different rapamycin formulations. The model has two random effects to incorporate a correlation between data measured on the same adenoma and a correlation between adenomas found within the same animal. For weights, only one random effect was used to model the correlation between data from the same animal. A comparison was considered significant if P<0.01 to adjust for multiple comparisons. All analyses were performed using SAS ver 9.3. Unless stated otherwise, all data were tested for normality. A one-way ANOVA or non-parametric Kruskal-Wallis was used to determined statistical significance for comparisons among more than 2 groups. If there was at least one difference between treatment groups, multiple comparisons were used to search for pairwise differences. […]

[2] = mouse, in vivo
Protocol: All tissues (heart, spleen, kidney, liver, and colon) were fixed in phosphate-buffered formalin for 24 h, paraffin-embedded, and cut in 10 μm sections. Routine histology (H&E) was performed. Renal toxicity was assessed after completion of therapy. Histology (H&E) from representative murine kidney sections (n=4) from the different treatment groups were evaluated for tubules with vacuoles on five random fields (400× magnification) for each specimen.

colonic adenomas = assay: In vivo fluorescence endoscopy of Cy5.5-labeled peptides binding to colonic adenomas; parameters: species or system CPC; Apc mouse; details: Cy5.5-labeled peptide, 200 μM via tail vein, 1 hour circulation
Description: Our laboratory has previously identified a group of peptides that bind specifically to colonic adenomas in the CPC; Apc mouse. Peptides […] (SEQ ID NO: 3), KCCFPAQ (SEQ ID NO: 9), LTTHYKL (SEQ ID NO: 18), and AKPGYLS (SEQ ID NO: 17) were identified using phage display technology. Peptides YTTTNAS (SEQ ID NO: 64) and DNEPIAQ (SEQ ID NO: 65) were included as controls. These peptides were identified based on an unbiased screen of cells and tissues to maximize specific binding in vivo. The peptides were labeled with Cy5.5 and injected via tail vein at a concentration of 200 μM in 1×PBS. The peptides were allowed to circulate for 1 hour to allow for non-specific binding to clear. The colon was rinsed again with tap water. Fluorescence images were then collected. […] Fluorescence images for each adenoma were analyzed by defining a region of interest (ROI) around the adenoma and adjacent normal-appearing mucosa using ImageJ software. The mean values were calculated for each ROI, and the T/B ratio was determined. The mean T/B ratio for each peptide was calculated, and Kruskal-Wallis and Dunn's multiple comparison tests were used to determine statistical differences. […]
We performed in vivo imaging of colon in CPC; Apc mice to select the peptide to label the micelles. […] Adenomas with diameter of >1.5 mm were identified, and the location from the anus was recorded. […]

CO[C@H]1C[C@@H]2CC[C@@H](C)[C@@](O)(O2)C(=O)C(=O)N2CCCC[C@H]2C(=O)O[C@H]([C@H](C)C[C@@H]2CC[C@@H](O)[C@H](OC)C2)CC(=O)[C@H](C)/C=C(\C)[C@@H](O)[C@@H](OC)C(=O)[C@H](C)C[C@H](C)/C=C/C=C/C=C/1C [free rapamycin, Rapamycin]
body weight [1]: gained more weight | renal toxicity: number of vacuolated tubules per high-power field [2]: significantly greater number of vacuoles

LTTHYKL (SEQ ID NO: 18) [LTT*]
target-to-background (T/B) ratio, in vivo fluorescence (colonic adenomas): strongest binding | target-to-background (T/B) ratio, in vivo fluorescence (colonic adenomas; listed as LTTHYKL): highest mean value
